Key:
[1] = per literature data; cited from earlier work
[2] = dechlorination in platinum-catalyzed hydrogenation, semi-continuous reactor; conditions: for Dechlor: ppm based on weight of product amine
Description: The autoclave was sealed, the air was displaced with nitrogen and the autoclave was pressure tested. The nitrogen was replaced with hydrogen and the contents of the autoclave were heated to 80° C. The agitation was started and the contents of the autoclave were heated to 100° C. The pressure control regulator on the hydrogen feed was set at 540 psig and this pressure maintained in the autoclave throughout the reduction. The addition of 510 g of 3,4-dichloro-1-nitrobenzene crude (containing 11% 2,3- and 1% 2,5- isomers) was started. During the simultaneous feeding of the hydrogen and the nitroaromatic, the temperature was allowed to rise to 135° C. where it was controlled by the automated cooling water system. The addition of the nitroaromatic was completed in about 120 minutes. […] Heating at reaction conditions was continued for an additional 15 minutes. The autoclave was cooled, the hydrogen was displaced with nitrogen and the organic phase was separated.

[3] = dehalogenation inhibitor evaluation in laboratory batch hydrogenation
Description: The autoclave was sealed, the air was displaced with nitrogen and the autoclave was pressure tested. The nitrogen was replaced with hydrogen and the contents of the autoclave were heated to 75° C. The agitation was started and the pressure control regulator on the hydrogen feed was set to a maximum of 500 psig. […] The reduction was terminated. The autoclave was cooled, the hydrogen was displaced with nitrogen and the organic phase was separated.
Hydrogenation temperature was controlled at 110° C. instead of 96° C.

[4] = storage stabilization of molten 3,4-dichloroaniline at 110° C.; conditions: 0.43 wt. % additive
Description: Round bottom drying ampuls of 20 ml capacity were dried by heating and were then cooled under nitrogen. Ten ml of test samples consisting of molten 3,4-dichloroaniline containing candidate stabilizers were pipetted into the ampuls which were sealed under nitrogen and stored in a 110° C. oven. Periodically an ampul of each sample was removed from the oven and evaluated.

[5] = 2.1 mole % inhibitor based on nitroaromatic
[6] = 2.0 mole % inhibitor based on nitroaromatic

In the case of `OCCNCCO` [diethanolamine], the pKb [1] is listed as 5.0 and the Dechlor [2, 5] is listed as 344 ppm.

For `NCCCO` [3-amino-1-propanol], the pKb [1] is given as 4.1 and the Dechlor [2, 6] is given as 423 ppm.

With `CC(O)CN` (stereo not shown) [1-amino-2-propanol] the Dechlor ([2]; 1.5 mole % inhibitor based on nitroaromatic) was 470 ppm.

For `NCCO` [ethanolamine], the “dechlorination (total of aniline and monochloroanilines in the product calculated as p-chloroaniline)” value ([2]; Example 1, 0.4 weight % and 1.2 mole % inhibitor based on nitroaromatic, 135° C., 540 psig) was “less than 235 ppm”, the “dechlorination (total of aniline and monochloroanilines calculated as p-chloroaniline)” value ([3]; Example 8, 0.5 weight % inhibitor, 96° C., 7.9 mg platinum, terminated at 188 minutes) was 0.03% and the “dechlorinated derivatives in product amine” value ([3]; Example 9, 0.375 weight % inhibitor, 110° C., 15.8 mg platinum) was 0.003%. The dehalogenation ([3]; batch, 96° C., concentrations near optimum for semicontinuous unit) was “very low”.

With `C1COCCN1` [morpholine, reference compound] the Dechlor [2, 5] was 548 ppm.

For `COCCN` [2-methoxyethylamine], the Color ([4]; 7 days) was “Lt yellow”, the “High Boilers” value ([4]; 7 days) was 0.05 Weight % and the Color ([4]; 60 days) was “Yellow”. The “High Boilers” value ([4]; 60 days) was 0.07 Weight %, the pKb [1] was 4.6 and the Dechlor [2, 6] was 282 ppm. For the same compound, the “dechlorinated derivatives in product amine” value ([3]; Example 10, 1.0 weight % inhibitor, otherwise as Example 8) was 0.05% and the dehalogenation inhibition ([3]; batch, similar conditions (96° C.)) was “good dehalogenation inhibitor being approximately equivalent to morpholine”.

In the case of `COCCCN` [3-methoxy-1-propylamine], the Dechlor ([2]; 2.5 mole % inhibitor based on nitroaromatic) is reported as 438 ppm.
